Literature values as cited in US20070020642A1, “Structural interaction fingerprint” (priority 2003, published 2007).

Biological target: p38 (Homo sapiens, UniProt Q16539)
Conditions: result in words, known from the literature

Sequence of p38 (Q16539 whole entry): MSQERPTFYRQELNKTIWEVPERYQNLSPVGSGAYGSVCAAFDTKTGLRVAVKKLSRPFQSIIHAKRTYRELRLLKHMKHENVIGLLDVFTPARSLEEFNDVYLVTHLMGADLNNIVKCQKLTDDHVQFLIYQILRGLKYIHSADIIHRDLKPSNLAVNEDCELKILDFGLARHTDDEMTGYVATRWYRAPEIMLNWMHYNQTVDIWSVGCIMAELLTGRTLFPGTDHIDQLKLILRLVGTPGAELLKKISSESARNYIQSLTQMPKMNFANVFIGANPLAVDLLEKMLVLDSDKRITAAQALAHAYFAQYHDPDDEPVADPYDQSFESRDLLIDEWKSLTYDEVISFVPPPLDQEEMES

Row | p38 inhibition activity | SMILES
1 | potent p38 inhibitors | Fc1ccc(-c2nc3n(c2-c2ccncc2)CCS3)cc1 [SKF-86002]
2 | no p38 inhibition activity | O=C(C(=C1SCS1)c1ccncc1)c1ccc(OC(F)(F)F)cc1 [Cmp-59076, 2-[1,3]Dithietan-2-pyridin-4-yl-1-(4-trifluoromethoxy-phenyl)-ethanone]
